Starred links: 1 amine or outer side, 2 acyl side, 3 side chain; linkers in the order of their positions; H or OH if unused. Positions of bridges follow the written chain, without caps; N, C: chain ends. Non-standard residues stand in square brackets, D forms with d. Residues, ends and D or L forms follow the SMILES beside them. Trp(7-aza) = N[C@@H](Cc1c[nH]c2ncccc12)C(=O)O; mXylylene = c1cc(C[*:1])cc(C[*:2])c1; oXylylene = c1ccc(C[*:2])c(C[*:1])c1; Phg = N[C@H](C(=O)O)c1ccccc1; Tle = CC(C)(C)[C@H](N)C(=O)O; NMeS = CN[C@@H](CO)C(=O)O; hCys = N[C@@H](CCS)C(=O)O; NMeA = CN[C@@H](C)C(=O)O; Nva = CCC[C@H](N)C(=O)O; Sar = CNCC(=O)O A value given as a limit tells only on which side of the number the result lay.

A word on the IC50: it is the concentration at which inhibition is half-maximal.

For one experiment, the target named is C5 (Homo sapiens, UniProt P01031). Briefly: Human hemolysis assay (RBC lysis assay using complete human sera). In kind it is cell-based. Set-up: with complete human sera (Complement Technology, Tyler Tex.) and polypeptides; tissue Complement Technology, Tyler Tex; host or cells: complete human serum. The following applies: 7-azatryptophan variant polypeptides of R3008; inhibition of red blood cell lysis.
Sequence of C5 (P01031 19-1676): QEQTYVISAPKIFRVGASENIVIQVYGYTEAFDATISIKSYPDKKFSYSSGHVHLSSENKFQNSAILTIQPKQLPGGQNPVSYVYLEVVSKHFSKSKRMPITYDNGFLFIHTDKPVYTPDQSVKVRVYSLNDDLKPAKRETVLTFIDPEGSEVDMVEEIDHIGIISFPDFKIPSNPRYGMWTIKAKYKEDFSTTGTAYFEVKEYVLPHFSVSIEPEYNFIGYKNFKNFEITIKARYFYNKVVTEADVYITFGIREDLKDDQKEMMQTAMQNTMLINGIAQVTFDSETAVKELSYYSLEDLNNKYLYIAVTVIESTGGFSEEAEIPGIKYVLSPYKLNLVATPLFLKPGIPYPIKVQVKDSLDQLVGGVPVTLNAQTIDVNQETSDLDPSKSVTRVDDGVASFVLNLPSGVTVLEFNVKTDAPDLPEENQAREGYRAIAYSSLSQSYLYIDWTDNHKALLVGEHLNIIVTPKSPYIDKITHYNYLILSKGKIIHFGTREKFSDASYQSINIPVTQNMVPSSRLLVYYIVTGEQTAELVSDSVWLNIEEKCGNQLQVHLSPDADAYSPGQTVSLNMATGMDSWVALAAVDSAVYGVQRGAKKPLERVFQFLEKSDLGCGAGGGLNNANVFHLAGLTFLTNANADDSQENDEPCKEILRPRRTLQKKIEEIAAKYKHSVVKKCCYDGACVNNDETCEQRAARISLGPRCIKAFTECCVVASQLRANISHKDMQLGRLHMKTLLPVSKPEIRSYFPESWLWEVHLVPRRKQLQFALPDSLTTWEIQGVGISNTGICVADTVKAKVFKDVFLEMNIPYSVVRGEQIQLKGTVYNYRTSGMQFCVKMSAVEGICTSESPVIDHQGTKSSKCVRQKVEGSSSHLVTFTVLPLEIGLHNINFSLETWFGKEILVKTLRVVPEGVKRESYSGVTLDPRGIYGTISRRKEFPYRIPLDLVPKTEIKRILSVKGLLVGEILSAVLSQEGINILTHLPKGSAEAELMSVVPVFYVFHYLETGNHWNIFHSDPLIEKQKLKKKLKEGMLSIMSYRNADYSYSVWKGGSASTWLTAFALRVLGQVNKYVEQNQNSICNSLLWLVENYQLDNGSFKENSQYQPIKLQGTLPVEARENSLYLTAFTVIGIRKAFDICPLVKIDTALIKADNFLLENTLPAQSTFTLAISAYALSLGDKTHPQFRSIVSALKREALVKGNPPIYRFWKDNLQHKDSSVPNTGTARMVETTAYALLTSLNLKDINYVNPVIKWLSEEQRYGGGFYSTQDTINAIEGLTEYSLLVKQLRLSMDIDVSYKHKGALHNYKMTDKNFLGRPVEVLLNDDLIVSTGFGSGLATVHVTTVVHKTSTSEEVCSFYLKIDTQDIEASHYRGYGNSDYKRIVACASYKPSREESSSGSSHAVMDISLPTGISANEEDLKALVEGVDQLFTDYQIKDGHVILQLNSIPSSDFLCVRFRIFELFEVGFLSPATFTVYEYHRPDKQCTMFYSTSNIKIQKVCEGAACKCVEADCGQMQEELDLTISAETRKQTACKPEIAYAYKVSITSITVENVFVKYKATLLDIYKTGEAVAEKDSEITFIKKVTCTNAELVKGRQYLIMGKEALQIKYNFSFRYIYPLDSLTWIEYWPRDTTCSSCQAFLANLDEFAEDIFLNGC
In turn, `CCC[C@H](NC(=O)[C@@H]1CSCc2cccc(c2)CSC[C@H](NC(=O)[C@H](CCC)NC(C)=O)C(=O)N[C@@H](c2ccccc2)C(=O)N[C@@H]([C@@H](C)O)C(=O)N[C@H](Cc2c[nH]c3ccccc23)C(=O)N[C@@H](CCC(=O)O)C(=O)N[C@@H](Cc2ccc(O)cc2)C(=O)N(C)[C@@H](CO)C(=O)N[C@@H](Cc2c[nH]cn2)C(=O)N1)C(N)=O` [Compound R3132, [mXylyl(2,10)]Ac-Nvl-C-Phg-T-(D-Trp)-E-Y-(N-Me)S-H-C-Nvl-NH2] (Ac-[Nva]C[Phg]T[dW]EY[NMeS]HC[Nva]-NH2; linker 2-10 via mXylylene) displayed a half-inhibitory concentration (IC50) above 100000 nM.

The same experiment, now with this note: C-terminally truncated polypeptide variants of R3021; inhibition of red blood cell lysis.
On to `CSCC[C@H](N)C(=O)N[C@H]1CSCc2cccc(c2)CSC[C@@H](C(=O)N[C@@H](CC(=O)O)C(=O)N[C@H](C(=O)N[C@@H](Cc2ccc(O)cc2)C(=O)N[C@@H](Cc2c[nH]c3ccccc23)C(N)=O)C(C)C)NC(=O)[C@H](Cc2ccccc2)NC(=O)[C@H](CCCNC(=N)N)NC(=O)[C@H](CCC(=O)O)NC(=O)[C@H](C(C)C)NC1=O` [Compound R3044, [mXylyl(2,7)]M-C-V-E-R-F-C-D-V-Y-W-NH2] (H-MCVERFCDVYW-NH2; linker 2-7 via mXylylene), for which the 50% inhibitory concentration (IC50) was above 50000 nM.

Staying with this experiment, now noted: inhibition of lysis of antibody-sensitized sheep erythrocytes, complete human sera.
Consider `CC(=O)N[C@H]1CSCc2cccc(c2)CSC[C@@H](C(=O)N[C@@H](CC(=O)O)C(=O)N[C@H](C(=O)N[C@@H](Cc2ccc(O)cc2)C(=O)N[C@@H](Cc2c[nH]c3ncccc23)C(=O)N[C@@H](CCC(=O)O)C(=O)N[C@@H](Cc2ccc(O)cc2)C(=O)N2CCC[C@H]2C(=O)N[C@@H](C(=O)N[C@@H](CCCCN)C(N)=O)c2ccccc2)C(C)(C)C)NC(=O)[C@H](Cc2ccccc2)NC(=O)[C@H](CCCNC(=N)N)NC(=O)[C@H](CCC(=O)O)NC(=O)[C@H](C)NC1=O` [Compound R3162, [mXylyl(1,6)]Ac-C-A-E-R-F-C-D-Tbg-Y-azaTrp-E-Y-P-(D-Phg)-K-NH2], for which the IC50 amounted to 16.5 nM.
On the same count and under the same terms, as for `CCC[C@H](NC(=O)[C@@H](NC(=O)[C@@H]1CCCN1C(=O)[C@@H]1CSCc2cccc(c2)CSC[C@H](NC(=O)[C@H](CCC)NC(C)=O)C(=O)N[C@@H](Cc2ccc(O)cc2)C(=O)N[C@@H](CCC(=O)O)C(=O)N[C@@H](CC(N)=O)C(=O)N[C@@H](C(C)(C)C)C(=O)N[C@@H](Cc2ccc(O)cc2)C(=O)N[C@@H](Cc2c[nH]c3ncccc23)C(=O)N[C@@H](CCC(=O)O)C(=O)N1)c1ccccc1)C(N)=O` [Compound R3018, [mXylyl(2,10)]Ac-Nvl-C-Y-E-N-Tbg-Y-azaTrp-E-C-P-Phg-Nvl-NH2] (Ac-[Nva]CYEN[Tle]Y[Trp(7-aza)]ECP[Phg][Nva]-NH2; linker 2-10 via mXylylene), the figure is above 5730 nM; as for `CCC[C@H](NC(C)=O)C(=O)N[C@H]1CSCc2cccc(c2)CSC[C@@H](C(N)=O)NC(=O)[C@@H]2CCCN2C(=O)[C@H](CCC)NC(=O)[C@H](CCC)NC(=O)[C@H](CCC(=O)O)NC(=O)[C@H](Cc2c[nH]c3ncccc23)NC(=O)[C@H](Cc2ccc(O)cc2)NC(=O)[C@H](C(C)(C)C)NC(=O)CN(C)C(=O)[C@H](CCC(=O)O)NC(=O)[C@H](Cc2ccc(O)cc2)NC1=O` [Compound R3010, [mXylyl(2,13)]Ac-Nvl-C-Y-E-(N-Me)G-Tbg-Y-azaTrp-E-Nvl-Nvl-P-C-NH2] (Ac-[Nva]CYE[Sar][Tle]Y[Trp(7-aza)]E[Nva][Nva]PC-NH2; linker 2-13 via mXylylene), above 100000 nM; as for `CSCC[C@H](N)C(=O)N[C@H]1CSCc2cccc(c2)CSC[C@@H](C(=O)N[C@@H](CC(=O)O)C(=O)N[C@H](C(=O)N[C@@H](Cc2ccc(O)cc2)C(=O)N[C@@H](Cc2c[nH]c3ccccc23)C(N)=O)C(C)C)NC(=O)[C@H](Cc2ccccc2)NC(=O)[C@H](CCCNC(=N)N)NC(=O)[C@H](CCC(=O)O)NC(=O)[C@H](C(C)C)NC1=O` [Compound R3044, [mXylyl(2,7)]M-C-V-E-R-F-C-D-V-Y-W-NH2] (H-MCVERFCDVYW-NH2; linker 2-7 via mXylylene), above 50000 nM.
For the molecule `CCC[C@H](NC(=O)CN(C)C(=O)[C@H](Cc1ccc(O)cc1)NC(=O)[C@H](CCC(=O)O)NC(=O)[C@H](Cc1c[nH]c2ncccc12)NC(=O)[C@H](Cc1ccc(O)cc1)NC(=O)[C@@H](NC(=O)[C@H](CC(N)=O)NC(=O)[C@H](CCC(=O)O)NC(=O)[C@H](Cc1ccc(O)cc1)NC(C)=O)C(C)(C)C)C(=O)N(C)[C@@H](CO)C(N)=O` [Compound R3006, Ac-Y-E-N-Tbg-Y-azaTrp-E-Y-(N-Me)G-Nvl-(N-Me)S-NH2] (Ac-YEN[Tle]Y[Trp(7-aza)]EY[Sar][Nva][NMeS]-NH2), the IC50 came out at 267 nM.
Still for that read-out and setting: as for `CCC[C@H](NC(=O)[C@@H]1CSCc2cccc(c2)CSC[C@H](NC(=O)[C@H](CCC)NC(C)=O)C(=O)N[C@@H](c2ccccc2)C(=O)N[C@@H]([C@@H](C)O)C(=O)N[C@H](Cc2c[nH]c3ccccc23)C(=O)N[C@@H](CCC(=O)O)C(=O)N[C@@H](Cc2ccc(O)cc2)C(=O)N(C)[C@@H](CO)C(=O)N[C@@H](Cc2c[nH]cn2)C(=O)N1)C(N)=O` [Compound R3132, [mXylyl(2,10)]Ac-Nvl-C-Phg-T-(D-Trp)-E-Y-(N-Me)S-H-C-Nvl-NH2] (Ac-[Nva]C[Phg]T[dW]EY[NMeS]HC[Nva]-NH2; linker 2-10 via mXylylene), the figure is above 100000 nM.
On the same count and under the same terms, the value for `CC(=O)N[C@H]1CSCc2cccc(c2)CSC[C@@H](C(=O)N[C@@H](CC(=O)O)C(=O)N[C@H](C(=O)N[C@@H](Cc2ccc(O)cc2)C(=O)N[C@@H](Cc2c[nH]c3ncccc23)C(=O)N[C@@H](CCC(=O)O)C(=O)N[C@@H](Cc2ccc(O)cc2)C(=O)N2CCC[C@H]2C(=O)N[C@H](C(=O)N[C@@H](CCCCN)C(N)=O)c2ccccc2)C(C)(C)C)NC(=O)[C@H](Cc2ccccc2)NC(=O)[C@H](CCCNC(=N)N)NC(=O)[C@H](CCC(=O)O)NC(=O)[C@H](C)NC1=O` [Compound R3161, [mXylyl(1,6)]Ac-C-A-E-R-F-C-D-Tbg-Y-azaTrp-E-Y-P-Phg-K-NH2] was 7 nM.
Still for that read-out and setting: the value for `CCC[C@H](NC(=O)[C@@H]1CSCc2ccccc2CSC[C@H](NC(=O)[C@H](CCC)NC(C)=O)C(=O)N[C@@H](c2ccccc2)C(=O)N[C@@H]([C@@H](C)O)C(=O)N[C@@H](Cc2c[nH]c3ncccc23)C(=O)N[C@@H](CCC(=O)O)C(=O)N[C@@H](Cc2ccc(O)cc2)C(=O)N(C)[C@@H](CO)C(=O)N[C@@H](Cc2c[nH]cn2)C(=O)N1)C(N)=O` [Compound R3049, [oXylyl(2,10)]Ac-Nvl-C-Phg-T-azaTrp-E-Y-(N-Me)S-H-C-Nvl-NE2] (Ac-[Nva]C[Phg]T[Trp(7-aza)]EY[NMeS]HC[Nva]-NH2; linker 2-10 via oXylylene) was above 3100 nM.
In the case of `CCC[C@H](NC(=O)[C@@H]1CCSCc2cccc(c2)CSCC[C@H](NC(=O)[C@H](CCC)NC(C)=O)C(=O)N[C@@H](c2ccccc2)C(=O)N[C@@H]([C@@H](C)O)C(=O)N[C@@H](Cc2c[nH]c3ncccc23)C(=O)N[C@@H](CCC(=O)O)C(=O)N[C@@H](Cc2ccc(O)cc2)C(=O)N(C)[C@@H](CO)C(=O)N[C@@H](Cc2c[nH]cn2)C(=O)N1)C(N)=O` [Compound R3107, [mXylyl(2,10)]Ac-Nvl-homoC-Phg-T-azaTrp-E-Y-(N-Me)S-H-homoC-Nvl-NH2] (Ac-[Nva][hCys][Phg]T[Trp(7-aza)]EY[NMeS]H[hCys][Nva]-NH2; linker 2-10 via mXylylene), the IC50 is above 75000 nM.
Same read-out and setting: as for `CCC[C@H](NC(=O)[C@@H]1CSCc2cccc(c2)CSC[C@H](NC(=O)[C@H](CCC)NC(C)=O)C(=O)N[C@@H](c2ccccc2)C(=O)N[C@@H](C)C(=O)N[C@@H](Cc2c[nH]c3ncccc23)C(=O)N[C@@H](CCC(=O)O)C(=O)N[C@@H](Cc2ccc(O)cc2)C(=O)N(C)[C@@H](CO)C(=O)N[C@@H](Cc2c[nH]cn2)C(=O)N1)C(N)=O` [Compound R3033, [mXylyl(2,10)]Ac-Nvl-C-Phg-A-azaTrp-E-Y-(N-Me)S-H-C-Nvl-NH2] (Ac-[Nva]C[Phg]A[Trp(7-aza)]EY[NMeS]HC[Nva]-NH2; linker 2-10 via mXylylene), the figure is 131 nM; as for `CCC[C@H](NC(=O)[C@@H]1CSCc2cccc(c2)CSC[C@H](NC(=O)[C@H](CCC)NC(C)=O)C(=O)N[C@@H](c2ccccc2)C(=O)N[C@@H]([C@@H](C)O)C(=O)N[C@@H](Cc2c[nH]c3ncccc23)C(=O)N[C@@H](CCC(=O)O)C(=O)N[C@@H](Cc2ccc(O)cc2)C(=O)N(C)[C@@H](C)C(=O)N[C@@H](Cc2c[nH]cn2)C(=O)N1)C(N)=O` [Compound R3037, [mXylyl(2,10)]Ac-Nvl-C-Phg-T-azaTrp-E-Y-(N-Me)A-H-C-Nvl-NH2] (Ac-[Nva]C[Phg]T[Trp(7-aza)]EY[NMeA]HC[Nva]-NH2; linker 2-10 via mXylylene), 276 nM; as for `CCC[C@H](NC(C)=O)C(=O)N[C@H]1CSCc2cccc(c2)CSC[C@@H](C(N)=O)NC(=O)[C@H](Cc2c[nH]cn2)NC(=O)[C@H](CO)N(C)C(=O)[C@H](Cc2ccc(O)cc2)NC(=O)[C@H](CCC(=O)O)NC(=O)[C@H](Cc2c[nH]c3ncccc23)NC(=O)[C@H]([C@@H](C)O)NC(=O)[C@H](c2ccccc2)NC1=O` [Compound R3013, [mXyly1(2,10)]Ac-Nvl-C-Phg-T-azaTrp-E-Y-(N-Me)S-H-C-NH2] (Ac-[Nva]C[Phg]T[Trp(7-aza)]EY[NMeS]HC-NH2; linker 2-10 via mXylylene), 344 nM.
Same read-out and setting: as for `CCC[C@H](NC(=O)[C@@H]1CSCc2cccc(c2)CSC[C@H](NC(=O)[C@H](CCC)NC(C)=O)C(=O)N[C@@H](c2ccccc2)C(=O)N[C@@H]([C@@H](C)O)C(=O)N[C@@H](Cc2c[nH]c3ncccc23)C(=O)N[C@@H](CCC(=O)O)C(=O)N[C@@H](Cc2ccc(O)cc2)C(=O)N(C)[C@@H](CO)C(=O)N[C@@H](Cc2c[nH]cn2)C(=O)N1)C(N)=O` [Compound R3012, [mXylyl(2,10)]Ac-Nvl-C-Phg-T-azaTrp-E-Y-(N-Me)S-H-C-Nvl-NH2] (Ac-[Nva]C[Phg]T[Trp(7-aza)]EY[NMeS]HC[Nva]-NH2; linker 2-10 via mXylylene), the figure is 148 nM.
Still for that read-out and setting: the value for `CCC[C@H](NC(=O)[C@@H]1CSCc2cccc(c2)CSC[C@H](NC(=O)[C@H](CCC)NC(C)=O)C(=O)N[C@@H](c2ccccc2)C(=O)N[C@@H]([C@@H](C)O)C(=O)N[C@@H](Cc2c[nH]c3ncccc23)C(=O)N[C@@H](CCC(=O)O)C(=O)N[C@@H](Cc2ccccc2)C(=O)N(C)[C@@H](CO)C(=O)N[C@@H](C)C(=O)N1)C(N)=O` [Compound R3100, [mXylyl(2,10)]Ac-Nvl-C-Phg-T-azaTrp-E-F-(N-Me)S-A-C-Nvl-NH2] (Ac-[Nva]C[Phg]T[Trp(7-aza)]EF[NMeS]AC[Nva]-NH2; linker 2-10 via mXylylene) was 626 nM; that for `CC(=O)N[C@H]1CSCc2cccc(c2)CSC[C@@H](C(=O)N[C@@H](CC(=O)O)C(=O)N[C@H](C(=O)N[C@@H](Cc2ccc(O)cc2)C(=O)N[C@@H](Cc2c[nH]c3ccccc23)C(=O)N[C@@H](CCC(=O)O)C(=O)N[C@@H](Cc2ccccc2)C(N)=O)C(C)C)NC(=O)[C@H](Cc2ccccc2)NC(=O)[C@H](CCCNC(=N)N)NC(=O)[C@H](CCC(=O)O)NC(=O)[C@H](C(C)(C)C)NC1=O` [Compound R3146, [mXylyl(1,6)]Ac-C-Tbg-E-R-F-C-D-V-Y-W-E-F-NH2] (Ac-C[Tle]ERFCDVYWEF-NH2; linker 1-6 via mXylylene) was 107 nM.
